ChEMBL document CHEMBL1146532, “Seco-prezizaane-type sesquiterpenes and an abietane-type diterpene from Illicium minwanense” (J Nat Prod, 2003)
Active and inactive are the calls of the source. No cut-off for these calls is given here.

System: Cortical neurone
Test: Induction of neurite outgrowth in rat cortical neurons at 10 uM after 4 days

Q: `C[C@@H]1C[C@H](O)[C@@]23O[C@@]4(O)C[C@@]12CC(=O)OC[C@@]3(C)[C@H]4C` (relative stereo) was tested. Which Activity did it give?
A: Its Activity is “inactive”.

Q: For `CO[C@@]12C[C@]34CC(=O)O[C@]3(C[C@@H](O)[C@H]4C)[C@](C)(CO1)[C@@H]2C`, which Activity is on record?
A: Its Activity is “inactive”.

Q: With `C[C@@H]1CC(=O)[C@@]2(O)[C@]13CC(=O)OC[C@@]2(C)[C@@](C)(O)C(=O)C3` as the compound, how does the Activity read?
A: Its Activity is “inactive”.

Q: Which Activity does the source give for `C[C@@H]1[C@H](O)[C@H](O)[C@@]2(O)[C@]13CC(=O)OC[C@@]2(C)[C@H](C)C(=O)C3` here?
A: Its Activity is “inactive”.

Q: `C[C@]12COC(=O)C[C@@]3(CC(=O)[C@]1(C)O)[C@]2(O)[C@@H](O)C[C@]3(C)O` was tested. Which Activity did it give?
A: The Activity was “inactive”.

Q: For `C[C@@H]1[C@H](O)C[C@]23OC(=O)C[C@]12C[C@]1(O)OC[C@]3(C)[C@@H]1C`, which Activity is on record?
A: The Activity was “inactive”.

Q: How did the Activity turn out when `C[C@@H]1C[C@H](O)[C@@]2(O)[C@]13CC(=O)OC[C@@]2(C)[C@H](C)C(=O)C3` was run?
A: Its Activity is “inactive”.

Q: How did the Activity turn out when `C[C@@H]1C(=O)C=C2[C@]13CC(=O)O[C@H](C3)[C@@H](C)[C@@]2(C)CO` (relative stereo) was run?
A: Its Activity is “inactive”.

Q: For `C[C@@H]1[C@H]2C[C@]3(CC(=O)O2)C(=CC(=O)[C@@H]3C)[C@]1(C)CO` (relative stereo), which Activity is on record?
A: Its Activity is “inactive”.

Q: How did the Activity turn out when `C[C@]12COC(=O)C[C@@]3(CC(=O)[C@]1(C)O)[C@]2(O)CC[C@]3(C)O` was run?
A: The Activity was “inactive”.

Q: How did the Activity turn out when `C[C@@H]1C(=O)C[C@]23CC(=O)OC[C@]1(C)[C@@]2(O)[C@@H](O)C[C@]3(C)O` was run?
A: The Activity was “inactive”.

Q: `C[C@@H]1C[C@H](O)[C@@]2(O)[C@]13CC(=O)O[C@H](C3)[C@@H](C)[C@@]2(C)CO` was tested. Which Activity did it give?
A: Its Activity is “inactive”.

Q: With `C[C@@H]1C[C@H](O)[C@@]2(O)[C@]13CC(=O)OC[C@@]2(C)[C@@](C)(O)C(=O)C3` as the compound, how does the Activity read?
A: Its Activity is “inactive”.
